According to ChEMBL document CHEMBL1799965, “Synthesis of useful fragments in drug discovery: 2-Amino-5-tert-butylpyridine and its oxidised analogues” (Bioorg Med Chem Lett, 2011):
≈ marks a conversion by molar mass, not a printed value.

Legend:
[1] = Membrane affinity to immobilized artificial membrane by HPLC method; type: physicochemical
[2] = Solubility of the compound in buffer at pH 6.8; type: physicochemical
[3] = molecular target: Albumin (Homo sapiens, UniProt P02768); assay: Binding affinity to human serum albumin by HPLC method
Albumin, sequence (P02768 whole entry): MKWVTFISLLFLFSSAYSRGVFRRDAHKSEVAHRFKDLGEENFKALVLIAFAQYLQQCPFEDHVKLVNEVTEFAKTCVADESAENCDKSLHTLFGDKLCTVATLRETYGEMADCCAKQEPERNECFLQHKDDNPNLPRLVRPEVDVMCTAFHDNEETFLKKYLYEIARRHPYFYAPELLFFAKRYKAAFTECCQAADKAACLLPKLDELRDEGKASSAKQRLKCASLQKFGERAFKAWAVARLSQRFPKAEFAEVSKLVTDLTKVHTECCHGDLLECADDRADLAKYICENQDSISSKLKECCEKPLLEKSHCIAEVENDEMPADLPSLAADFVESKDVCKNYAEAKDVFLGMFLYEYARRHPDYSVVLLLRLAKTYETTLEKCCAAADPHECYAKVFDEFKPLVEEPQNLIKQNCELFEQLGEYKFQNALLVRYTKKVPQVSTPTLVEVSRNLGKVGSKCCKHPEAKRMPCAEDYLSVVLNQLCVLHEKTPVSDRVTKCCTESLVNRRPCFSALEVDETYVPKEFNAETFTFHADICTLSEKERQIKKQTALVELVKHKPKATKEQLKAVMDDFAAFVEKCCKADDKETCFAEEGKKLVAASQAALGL

[4] = Lipophilicity, Log D of the compound by HPLC method; type: physicochemical
[5] = Solubility of the compound in simulated fasted intestinal fluid; type: physicochemical; conditions: simulated gi fluid

CHI [1] | solubility [2] | Activity [3] | logD [4] | solubility [5] | Structure (SMILES)
35.5 | < 5 µM | 78.5% | 2.83 | < 5 µM | CC(C)(C)c1ccc(N)cc1
33 | 59 µM (≈ 8.86 µg/mL) | 38.9% | 1.53 | 72 µM (≈ 10.8 µg/mL) | CC(C)(C)c1ccc(N)nc1
